Assay results taken from patent US10618901B2 (GlaxoSmithKline Intellectual Property Development Limited, priority 2014, dated 2020).
Read-outs that look alike come from different tables or passages of the source.

Molecular target: T1, LRRK2 Ser935 phosphorylation in SH-SY5Y cells over-expressing recombinant full length LRRK2 (Homo sapiens, UniProt Q5S007)
T1 construct: A BacMam virus expressing full length recombinant LRRK2 was purchased from Invitrogen; host or cells: SH-SY5Y (BacMam transduction)
T1 sequence (Q5S007 whole entry): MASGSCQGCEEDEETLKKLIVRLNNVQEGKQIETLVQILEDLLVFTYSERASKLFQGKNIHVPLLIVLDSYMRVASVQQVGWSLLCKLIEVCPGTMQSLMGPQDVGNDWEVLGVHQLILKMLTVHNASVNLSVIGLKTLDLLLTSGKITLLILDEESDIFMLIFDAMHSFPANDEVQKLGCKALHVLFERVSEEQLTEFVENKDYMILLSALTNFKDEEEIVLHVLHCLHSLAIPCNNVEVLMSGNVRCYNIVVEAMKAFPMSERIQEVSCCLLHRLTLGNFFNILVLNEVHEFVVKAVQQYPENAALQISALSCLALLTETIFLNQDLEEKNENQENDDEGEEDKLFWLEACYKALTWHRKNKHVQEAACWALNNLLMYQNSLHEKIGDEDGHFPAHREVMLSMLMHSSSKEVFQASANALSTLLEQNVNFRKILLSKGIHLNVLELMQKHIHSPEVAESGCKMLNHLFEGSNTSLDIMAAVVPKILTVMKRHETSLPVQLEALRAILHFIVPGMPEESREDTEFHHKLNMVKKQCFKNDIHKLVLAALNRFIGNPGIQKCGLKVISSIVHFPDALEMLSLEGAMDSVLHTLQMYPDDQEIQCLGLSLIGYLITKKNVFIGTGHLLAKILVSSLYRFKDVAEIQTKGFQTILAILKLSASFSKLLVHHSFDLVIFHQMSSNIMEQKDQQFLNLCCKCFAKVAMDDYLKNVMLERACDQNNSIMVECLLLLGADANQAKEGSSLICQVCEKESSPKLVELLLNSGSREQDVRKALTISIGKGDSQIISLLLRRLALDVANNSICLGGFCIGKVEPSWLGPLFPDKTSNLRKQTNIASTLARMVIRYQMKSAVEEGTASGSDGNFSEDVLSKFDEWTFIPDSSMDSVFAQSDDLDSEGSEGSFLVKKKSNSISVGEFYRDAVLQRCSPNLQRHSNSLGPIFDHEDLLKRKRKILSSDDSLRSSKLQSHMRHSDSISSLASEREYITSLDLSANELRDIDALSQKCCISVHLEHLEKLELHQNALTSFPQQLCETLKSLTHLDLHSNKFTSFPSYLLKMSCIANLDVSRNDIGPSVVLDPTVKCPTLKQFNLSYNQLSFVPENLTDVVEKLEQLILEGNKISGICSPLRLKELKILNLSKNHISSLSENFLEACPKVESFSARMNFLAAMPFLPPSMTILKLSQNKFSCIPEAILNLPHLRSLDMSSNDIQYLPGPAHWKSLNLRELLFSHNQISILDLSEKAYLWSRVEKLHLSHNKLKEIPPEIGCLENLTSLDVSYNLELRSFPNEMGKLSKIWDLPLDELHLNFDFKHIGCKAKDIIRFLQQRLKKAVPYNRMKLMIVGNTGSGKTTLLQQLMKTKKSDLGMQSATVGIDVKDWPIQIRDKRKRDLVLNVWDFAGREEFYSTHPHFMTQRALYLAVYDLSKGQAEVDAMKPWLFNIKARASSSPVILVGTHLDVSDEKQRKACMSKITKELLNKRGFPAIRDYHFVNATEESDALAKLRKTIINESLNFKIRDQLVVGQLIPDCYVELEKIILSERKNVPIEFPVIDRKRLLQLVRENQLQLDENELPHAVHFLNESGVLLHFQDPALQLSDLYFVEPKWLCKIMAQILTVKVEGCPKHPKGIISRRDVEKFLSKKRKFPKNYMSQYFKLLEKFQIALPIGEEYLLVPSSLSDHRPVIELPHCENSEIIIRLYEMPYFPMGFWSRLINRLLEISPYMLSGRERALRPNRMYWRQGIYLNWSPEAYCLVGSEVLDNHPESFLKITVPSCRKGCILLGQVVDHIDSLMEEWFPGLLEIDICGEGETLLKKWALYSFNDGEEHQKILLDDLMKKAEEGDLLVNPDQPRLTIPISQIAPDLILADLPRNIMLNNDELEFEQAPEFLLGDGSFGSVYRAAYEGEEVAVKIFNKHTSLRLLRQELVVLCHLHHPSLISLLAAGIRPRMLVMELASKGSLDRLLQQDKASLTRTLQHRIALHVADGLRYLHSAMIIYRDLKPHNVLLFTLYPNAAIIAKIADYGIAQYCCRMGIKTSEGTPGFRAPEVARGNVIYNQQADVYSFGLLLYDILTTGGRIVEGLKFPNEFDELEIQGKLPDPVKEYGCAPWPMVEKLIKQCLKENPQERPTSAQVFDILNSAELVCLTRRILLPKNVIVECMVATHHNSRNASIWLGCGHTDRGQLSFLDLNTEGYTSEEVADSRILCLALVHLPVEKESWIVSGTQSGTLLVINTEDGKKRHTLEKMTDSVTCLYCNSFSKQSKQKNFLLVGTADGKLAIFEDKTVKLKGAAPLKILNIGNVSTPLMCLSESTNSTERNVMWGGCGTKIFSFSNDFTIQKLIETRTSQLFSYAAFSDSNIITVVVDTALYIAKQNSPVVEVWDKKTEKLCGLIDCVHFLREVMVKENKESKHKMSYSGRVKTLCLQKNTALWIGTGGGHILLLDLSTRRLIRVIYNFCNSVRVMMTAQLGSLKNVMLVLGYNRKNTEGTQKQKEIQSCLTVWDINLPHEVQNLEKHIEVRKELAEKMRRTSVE
Assay: Recombinant cellular LRRK2 AlphaScreen assay
Type: cell-based
From the text: Recombinant Cellular LRRK2 AlphaScreen Assay
To determine the activity of compounds against LRRK2 kinase activity in cells, the observed LRRK2 kinase-dependent modulation of LRRK2 Ser 935 phosphorylation (Dzamko et al., 2010, Biochem. J. 430: 405-413) was utilized to develop a quantitative 384 well plate-based immunoassay of LRRK2 Ser935 phosphorylation in the human neuroblastoma cell line SH-SY5Y, engineered to over-express recombinant full length LRRK2 protein.
A BacMam virus expressing full length recombinant LRRK2 was purchased from Invitrogen and amplified by inoculation of SF-9 cells at MOI 0.3 for 4-5 days in Sf-900 III SFM medium supplemented with 3% fetal bovine serum. Infected cell cultures were then centrifuged at 2000 g for 20 minutes, viral supernatant titer determined by anti-gp64 plaque assay and stored at 4° C.
Affinity-purified anti-phospho LRRK2 Ser935 sheep polyclonal antibody (Dzamko et al., 2010, Biochem. J. 430: 405-413) was biotinylated by standard methods (PerkinElmer). Anti-LRRK2 rabbit polyclonal antibody was purchased from Novus Biologicals. AlphaScreen Protein A IgG Kit (including acceptor and donor beads) was purchased from Perkin Elmer.
SH-SY5Y cells were grown in DMEM/F12 medium with 10% dialysed fetal bovine serum and harvested by treatment with 0.5% trypsin-EDTA for 5 minutes at 37° C. followed by centrifugation at 1000 rpm for 4 minutes. The cell pellet was resuspended in Opti-MEM reduced serum media (Invitrogen) at 200,000 cells/ml and mixed with the BacMam LRRK2 virus at M01=50. 50 μl cell solutions were then dispensed to each well of a 384-well plate and incubated at 37° C., 5% CO2 for 24 hours.
Serial dilutions of test compounds were prepared in Opti-MEM reduced serum media (Invitrogen) and 5.6 ul transferred from compound plate to cell assay plate to achieve a top final assay concentration of 10 uM. DMSO was used in certain wells as controls. Cells were incubated at 37° C., 5% CO2 for 60 minutes. The medium was then removed and cells lysed by addition of 20 ul cell lysis buffer (Cell Signaling Technology) and incubation at 4° C. for 20 minutes. 10 ul of antibody/acceptor bead mix [(1/1000 biotinylated-pS935 LRRK2 antibody, 1/1000 total-LRRK2 antibody, 1/100 Acceptor beads in AlphaScreen detection buffer (25 mM Hepes (pH 7.4), 0.5% Triton X-100, 1 mg/ml Dextran 500 and 0.1% BSA)] was then added to each well and plates incubated for 2 hours at ambient temperature in the dark. 10 μl of donor beads solution (1/33.3 donor beads in AlphaScreen detection buffer) was then added to each well. Following incubation for a further 2 hours at ambient temperature in the dark, plates were read on an EnVision™ plate reader at emission 520-620 nm with excitation 680 nm. Dose response curve data was based on sigmoidal dose-response model.

[1] = read-out: pIC50 in the recombinant cellular LRRK2 alphaScreen assay (converted)

Structure (SMILES)	IC50 [1] [nM]	IC50 (LRRK2 Ser935 phosphorylation, 60 minutes, read-out: recombinant cellcular LRRK2 alphaScreen assay (pIC50) (converted)) [nM]
CCOc1nc(Nc2cnn(CCN3CCOC[C@@H]3C)c2C)nc2[nH]ccc12 [Example E82, (S)-4-ethoxy-N-(5-methyl-1-(2-(3-methylmorpholino)ethyl)-1H-pyrazol-4-yl)-7H-pyrrolo [2,3-d]pyrimidin-2-amine]	≤ 100	–
CCOc1nc(Nc2cnn(CCN3CCO[C@H](C)C3)c2C)nc2[nH]ccc12 [Example E83, (R)-4-ethoxy-N-(5-methyl-1-(2-(2-methylmorpholino)ethyl)-1H-pyrazol-4-yl)-7H-pyrrolo [2,3-d]pyrimidin-2-amine]	≤ 100	–
CCOc1nc(Nc2cnn(CCN3CCO[C@@H](C)C3)c2C)nc2[nH]ccc12 [Example E84, (S)-4-ethoxy-N-(5-methyl-1-(2-(2-methylmorpholino)ethyl)-1H-pyrazol-4-yl)-7H-pyrrolo [2,3-d]pyrimidin-2-amine]	≤ 100	–
CCOc1nc(Nc2cnn([C@@H]3CCN(CC(F)F)C3)c2C)nc2[nH]ccc12 [Example E85, (R)—N-(1-(1-(2,2-difluoroethyl)pyrrolidin-3-yl)-5-methyl-1H-pyrazol-4-yl)-4-ethoxy-7H-pyrrolo[2,3-d]pyrimidin-2-amine]	≤ 100	–
CCOc1nc(Nc2cnn([C@H]3CCN(CC(F)F)C3)c2C)nc2[nH]ccc12 [Example E87, (S)—N-(1-(1-(2,2-difluoroethyl)pyrrolidin-3-yl)-5-methyl-1H-pyrazol-4-yl)-4-ethoxy-7H-pyrrolo[2,3-d]pyrimidin-2-amine]	≤ 100	–
CCOc1nc(Nc2cnn(CC(C)(C)N3CCOCC3)c2C)nc2[nH]ccc12 [Example E88, 4-ethoxy-N-(5-methyl-1-(2-methyl-2-morpholinopropyl)-1H-pyrazol-4-yl)-7H-pyrrolo[2,3-d]pyrimidin-2-amine]	≤ 100	–
CCOc1nc(Nc2cnn(C3CC(C)(O)C3)c2C)nc2[nH]ccc12 (centres unmarked) [Example E93, 3-(4-((4-ethoxy-7H-pyrrolo[2,3-d]pyrimidin-2-yl)amino)-5-methyl-1H-pyrazol-1-yl)-1-methylcyclobutanol]	≤ 100	–
CCOc1nc(Nc2cnn([C@@H]3CCN[C@@H](C(F)F)C3)c2C)nc2[nH]ccc12 [Example E94, N-(1-((2R,4R)-2-(difluoromethyl)piperidin-4-yl)-5-methyl-1H-pyrazol-4-yl)-4-ethoxy-7H-pyrrolo[2,3-d]pyrimidin-2-amine]	≤ 100	–
CCOc1nc(Nc2cnn([C@H]3CCN[C@@H](C(F)F)C3)c2C)nc2[nH]ccc12 [Example E95, N-(1-((2R,4S)-2-(difluoromethyl)piperidin-4-yl)-5-methyl-1H-pyrazol-4-yl)-4-ethoxy-7H-pyrrolo[2,3-d]pyrimidin-2-amine]	≤ 100	–
CCOc1nc(Nc2cnn(C(C)(C)C#N)c2C)nc2[nH]ccc12 [Example E96, 2-(4-((4-ethoxy-7H-pyrrolo[2,3-d]pyrimidin-2-yl)amino)-5-methyl-1H-pyrazol-1-yl)-2-methylpropanenitrile]	≤ 100	–
CCOc1nc(Nc2cnn([C@H]3CCN(C4COC4)C[C@@H]3F)c2C)nc2[nH]ccc12 [Example E97, 4-ethoxy-N-(1-((3S,4S)-3-fluoro-1-(oxetan-3-yl)piperidin-4-yl)-5-methyl-1H-pyrazol-4-yl)-7H-pyrrolo[2,3-d]pyrimidin-2-amine]	≤ 100	–
CCOc1nc(Nc2cnn([C@@H]3CCN(C4COC4)C[C@H]3F)c2C)nc2[nH]ccc12 [Example E98, 4-ethoxy-N-(1-((3R,4R)-3-fluoro-1-(oxetan-3-yl)piperidin-4-yl)-5-methyl-1H-pyrazol-4-yl)-7H-pyrrolo[2,3-d]pyrimidin-2-amine]	≤ 100	–

Now from value to compound:

IC50 [1] [nM]	IC50 (LRRK2 Ser935 phosphorylation, 60 minutes, read-out: recombinant cellcular LRRK2 alphaScreen assay (pIC50) (converted)) [nM]	Structure (SMILES)
≤ 100	–	CCOc1nc(Nc2cnn(CCN3CCO[C@@H](C(F)F)C3)c2C)nc2[nH]ccc12 [Example E99, (R)—N-(1-(2-(2-(difluoromethyl)morpholino)ethyl)-5-methyl-1H-pyrazol-4-yl)-4-ethoxy-7H-pyrrolo[2,3-d]pyrimidin-2-amine]
≤ 100	–	CCOc1nc(Nc2cnn([C@@H]3CCCN(C4COC4)C3)c2C)nc2[nH]ccc12 [Example E135, (R)-4-ethoxy-N-(5-methyl-1-(1-(oxetan-3-yl)piperidin-3-yl)-1H-pyrazol-4-yl)-7H-pyrrolo [2,3-d]pyrimidin-2-amine]
≤ 100	–	CCOc1nc(Nc2cnn([C@H]3CCCN(C4COC4)C3)c2C)nc2[nH]ccc12 [Example E136, (S)-4-ethoxy-N-(5-methyl-1-(1-(oxetan-3-yl)piperidin-3-yl)-1H-pyrazol-4-yl)-7H-pyrrolo[2,3-d]pyrimidin-2-amine]
≤ 100	–	CCOc1nc(Nc2cnn(C3(C)CC(N4CCOCC4)C3)c2C)nc2[nH]ccc12 (centres unmarked) [Example E137, 4-ethoxy-N-(5-methyl-1-(1-methyl-3-morpholinocyclobutyl)-1H-pyrazol-4-yl)-7H-pyrrolo[2,3-d]pyrimidin-2-amine]
≤ 100	–	CCOc1nc(Nc2cnn(C3CCC(N4CCOCC4)CC3)c2Cl)nc2[nH]ccc12 (centres unmarked) [Example E149, N-(5-chloro-1-(4-morpholinocyclohexyl)-1H-pyrazol-4-yl)-4-ethoxy-7H-pyrrolo[2,3-d] pyrimidin-2-amine]
≤ 100	31.6	CCOc1nc(Nc2cnn([C@H]3C[C@H](F)CN(C4COC4)C3)c2Cl)nc2[nH]ccc12 [Example E150, N-(5-chloro-1-((3S,5S)-5-fluoro-1-(oxetan-3-yl)piperidin-3-yl)-1H-pyrazol-4-yl)-4-ethoxy-7H-pyrrolo[2,3-d]pyrimidin-2-amine]
≤ 100	–	CCOc1nc(Nc2cnn([C@@H]3C[C@H](F)CN(C4COC4)C3)c2Cl)nc2[nH]ccc12 [Example E151, N-(5-chloro-1-((3R,5S)-5-fluoro-1-(oxetan-3-yl)piperidin-3-yl)-1H-pyrazol-4-yl)-4-ethoxy-7H-pyrrolo[2,3-d]pyrimidin-2-amine]
